# Entries after “also recorded” stand apart in the source; their conditions may differ.
# Tests used:
# P388 leukemia system = details: mouse; cited from earlier work
# L1210 leukemia system = details: mouse; cited from earlier work
# [1] = cited from earlier work
# L1210 leukemic cells = experiment: chemotherapy of L1210 leukemic mice with adriamycin, survival; details: 4 mg/kg ip, days 1 through 5; day 24; listed as free adriamycin
# Description: 72 normal mice were each innoculated with 10^6 L1210 leukemic cells by intraperitoneal injection on day zero. […] The drug in all cases was also given by intraperitoneal injection and the dosages were repeated daily on days 1 through 5. The dosage levels chosen were 4 mg/kg, 2 mg/kg, 1 mg/kg and 0.5 mg/kg.
# normal mice = experiment: toxicity of adriamycin in normal mice, survival; format: in vivo; details: 4 mg/kg ip daily for five days, six mice; listed as free adriamycin
# Description: Two dosages levels of the drug were chosen--4 mg/kg and 2 mg/kg. In each case, six normal mice received the injections each day for five days and then they were observed thereafter to determine the number of survivors. The results are plotted in FIG. 16.
# [2] = binding of adriamycin to microreservoirs; format: physicochemical
# Description: With this 2 mg (3.45 μmoles) of adriamycin was used. In the five samples, the amount of phosphatidic acid in the total lipid constituent was varied from zero to 25%. […] The aqueous suspensions were each sonicated at 52° C. for 15 minutes. Each sample was passed down through a 2.5×50 cm Sephadex G-50 gel column to separate free and bound adriamycin.
# 2875 μmoles of purified soybean phosphatidyl chloine (specific activity 2296 ^3 H dpm/μmole) 720 μmoles of soybean phosphatidic acid and 720 μmoles of cholesteryl oleate (specific activity of 3638 ^14 C dpm/μmole) were dissolved in choloroform and taken to dryness by pumping overnight against a vacuum. The resulting solid material was hydrated with 20 ml of 10 mM of trihydroxymethylamine (pH 9.1) and the liquid was sonicated at 52° C. under a nitrogen atmosphere for 15 minutes. The pH of the solution was lowered to 7.2 and then it was centrifuged for one hour at 100,000 g. 34.9 mg of adriamycin was added to the clear supernatant and it was then allowed to incubate for 30 minutes at room temperature. After this incubation, the ionic strength of the solution was increased to 0.154 M NaCl; and it was passed down a 4.3×37 cm G-50 Sephadex G-50 gel column using 0.154 M NaCl and 10 mM trihydroxymethylamine as the eluting solvent.
# [3] = plasma kinetics of daunomycin in rats, intravenous
# Description: A control sample of free daunomycin at the same concentration and in the same buffer was also prepared.
# 0.5 ml of blood was taken at various time points from each rat. The plasma was separated from the blood samples and assayed for daunomycin fusing fluorescence. The data thus obtained are plotted in FIG. 10 as a function of time after injection.
# [4] = within two minutes after administration; cited from earlier work
# [5] = in vivo; cited from earlier work
# [6] = in vitro stability of microreservoirs and liposomes (optical density ratio A400/A600, thin layer chromatograms); format: physicochemical; details: after sonication and centrifugation
# Description: Both of the suspensions were then spun at 100,000 g for one hour to remove any undispersed lipid.
# Aliquots of 4 ml of each sample were then placed into stoppered curvettes and the samples were incubated at 37° C. At various points in time optical densities of the two solutions at 400 nm and 600 nm were determined. […] Since both structures initially had essentially the same molecular size, the ratio of A400/A600 is an indication of any increase in the particle size due to the breakdown of the structural organization of the liposome.
# P388 tumor cells = details: 4 mg/kg ip daily for 5 days
# Description: A number of mice were injected intraperitoneally with 1×10^6 P388 tumor cells. […] One group of mice, used as a control, received no drug in any form. Five mice were used for each protocol and two different dosage levels, 4 mg/kg and 2 mg/kg, were used.
# [7] = affinity for and efflux of estradiol undecanoate from vesicular and nonvesicular microreservoirs; format: physicochemical
# Description: The resulting liquid was sonicated at 40° C. for 20 minutes under a nitrogen atmosphere and passed down a Sepharose 4B Column. […] The material in the void volume of the column consisted of the nonvesicular form, whereas the material in the internal volume consisted of the vesicular form.
# [8] = plasma kinetics of imidocarb in rats, tail vein injection; format: in vivo; details: 24 hours (FIG. 24)
# Description: Plasma samples were taken at various time points and the amount of imidocarb in these samples was determined by measurements of their radio-activity.
# [9] = tissue distribution of free imidocarb and microreservoir-borne imidocarb; format: in vivo, rats; details: 4 hours after injection
# Description: Various tissues, such as muscle, spleen, liver and kidney, were taken from the animals. These tissues were combusted in a Searle combustion apparatus and the resulting ^14 CO2 was collected and counted for radioactivity.
smiles,measurement,setting,value
"CCCCC(=O)OCC(=O)C1(O)Cc2c(O)c3c(c(O)c2C(OC2CC(NC(=O)C(F)(F)F)C(O)C(C)O2)C1)C(=O)c1c(OC)cccc1C3=O (stereo not drawn) [AD 32, N-Trifluoroacetyladriamycin-14-Valerate]",antitumor activity,P388 leukemia system,significantly greater antitumor activity than adriamycin or daunomycin
same,antitumor activity,L1210 leukemia system,significantly greater antitumor activity than adriamycin or daunomycin
same,solubility in aqueous buffer / water,[1],totally insoluble in an aqueous buffer
COc1cccc2c1C(=O)c1c(O)c3c(c(O)c1C2=O)C[C@@](O)(C(=O)CO)C[C@@H]3O[C@H]1C[C@H](N)[C@H](O)[C@H](C)O1 [adriamycin],therapeutic effect / survivors,L1210 leukemic cells,some therapeutic effect for a short period of time; also recorded: all of the control mice and those receiving the free adriamycin had succumbed to leukemia and/or the toxic effect of the drug
same,toxicity (survival at 30 days),normal mice,highly toxic; also recorded: survival of only one mouse
same,solubility in aqueous buffer / water,[1],water soluble
same,binding of adriamycin to the microreservoirs relative to daunomycin,[2],"does not bind as strongly to the microreservoirs as does, for example, daunomycin"
same,bound adriamycin vs amount of phosphatidic acid,"[2]; 80 μmoles total phospholipid, 20 μmoles cholesteryl oleate, 2 mg adriamycin, pH 7.2",increases with increasing amounts of phosphatidic acid
same,phosphatidic acid content up to which bound adriamycin increases before levelling off,[2]; relative to total lipids,about 25 mole %
COc1cccc2c1C(=O)c1c(O)c3c(c(O)c1C2=O)C[C@@](O)(C(C)=O)C[C@@H]3O[C@H]1C[C@H](N)[C@H](O)[C@H](C)O1 [daunomycin],presence in the bloodstream after 3 3/4 hours,"[3]; printed ""33/4 hours"", 4 mg/kg iv",virtually absent from the bloodstream
same,concentration at 0.25 h,"[3]; rat, in vivo, iv, 4 mg/kg",~400 ng/mL
same,concentration at 1 h,"[3]; rat, in vivo, iv, 10 mg/kg",~500 ng/mL
same,concentration at 3 h,"[3]; rat, in vivo, iv, 10 mg/kg",~300 ng/mL
same,concentration at 6 h,"[3]; rat, in vivo, iv, 10 mg/kg",~140 ng/mL
same,fraction left to reach the target tissue,[4],~5%
same,fraction that has left the bloodstream within two minutes,[4],about 95%
same,toxicity,[5],"known to be toxic, particularly since it tends to concentrate in the heart tissues"
same,degradation by thin layer chromatograms of the centrifugates,[6],no evidence of degradation
same,chemotherapeutic effect / toxicity (survivors),P388 tumor cells,demonstrated a toxicity measurably greater than the tumor cells
CCCCCCCCCCC(=O)O[C@H]1CC[C@H]2[C@@H]3CCc4cc(O)ccc4[C@H]3CC[C@]12C [estradiol undecanoate],solubility in aqueous buffer / water,[1],essentially insoluble in water
same,efflux / retention of estradiol undecanoate,[7]; incubated with unsonicated egg phosphatidyl choline dispersion,remained associated with both forms of the microreservoirs
same,affinity for vesicular vs nonvesicular microreservoirs,[7]; ratio of estradiol undecanoate to cholesteryl oleate,higher affinity for the vesicular form of the microreservoirs than for the nonvesicular form
O=C(Nc1cccc(C2=NCCN2)c1)Nc1cccc(C2=NCCN2)c1 [imidocarb],imidocarb in the bloodstream after 24 hours,[8],virtually none
same,"tissue distribution, Kidney",[9]; kidney,"40,194 dpm/gram of tissue"
same,"tissue distribution, Liver",[9]; liver,"27,059 dpm/gram of tissue"
same,"tissue distribution, Muscle",[9]; muscle,"3,985 dpm/gram of tissue"
same,"tissue distribution, Spleen",[9]; spleen,"9,498 dpm/gram of tissue"
